# Data reported in PubChem BioAssay AID248 (DTP/NCI, 2004).
# Several values for one entry are separate records, joined by “and”; a condition that tells them apart may be missing. Equal values may be shown once. Inconclusive results and toxic doses are left out.
# System: L1210 leukemia ip in BDF1 mice, survival T/C
# Assay: NCI In Vivo Anticancer Drug Screen. Data for tumor model L1210 Leukemia (intraperitoneal) in B6D2F1 (BDF1) mice
# Details: endpoint: mean survival time, higher = longer survival
# Method in brief: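 Ratio derived from survival: compound-dosed mice over vehicle-dosed mice, all bearing a transplantable tumor.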
# [1] = dose: 50.0 mg/kg/injection, schedule: Q01DX009 (ip), vehicle: saline with Tween-80
# [2] = dose: 200.0 mg/kg/injection, schedule: Q04DX003 (ip), vehicle: saline
# [3] = dose: 100.0 mg/kg/injection, schedule: Q01DX009 (ip), vehicle: Klucel (hydroxypropylcellulose) (HPC)
# [4] = dose: 200.0 mg/kg/injection, schedule: Q01DX009 (ip), vehicle: Klucel (hydroxypropylcellulose) (HPC)
# [5] = dose: 400.0 mg/kg/injection, schedule: Q01DX009 (ip), vehicle: Klucel (hydroxypropylcellulose) (HPC)
# [6] = dose: 100.0 mg/kg/injection, schedule: Q01DX001 (ip), vehicle: Klucel (hydroxypropylcellulose) (HPC)
# [7] = dose: 100.0 mg/kg/injection, schedule: Q01DX009 (ip), vehicle: saline
# [8] = dose: 100.0 mg/kg/injection, schedule: Q04DX003 (ip), vehicle: saline
# [9] = dose: 200.0 mg/kg/injection, schedule: Q01DX001 (ip), vehicle: Klucel (hydroxypropylcellulose) (HPC)
# [10] = dose: 200.0 mg/kg/injection, schedule: Q01DX009 (ip), vehicle: saline
# [11] = dose: 400.0 mg/kg/injection, schedule: Q01DX001 (ip), vehicle: Klucel (hydroxypropylcellulose) (HPC)
# [12] = dose: 100.0 mg/kg/injection, schedule: Q04DX003 (ip), vehicle: Klucel (hydroxypropylcellulose) (HPC)
# [13] = dose: 200.0 mg/kg/injection, schedule: Q04DX003 (ip), vehicle: Klucel (hydroxypropylcellulose) (HPC)
# [14] = dose: 400.0 mg/kg/injection, schedule: Q04DX003 (ip), vehicle: Klucel (hydroxypropylcellulose) (HPC)
# [15] = dose: 50.0 mg/kg/injection, schedule: Q04DX002 (ip), vehicle: Klucel (hydroxypropylcellulose) (HPC)
# [16] = dose: 100.0 mg/kg/injection, schedule: Q04DX002 (ip), vehicle: Klucel (hydroxypropylcellulose) (HPC)
# [17] = dose: 200.0 mg/kg/injection, schedule: Q04DX002 (ip), vehicle: Klucel (hydroxypropylcellulose) (HPC)
structure (smiles),measurement,setting,value
COc1cccc2c(Cl)c(CCl)c(C)nc12,T/C,"dose: 12.5 mg/kg/injection, schedule: Q01DX009 (ip), vehicle: saline with Tween-80",97 % of control
same,T/C,"dose: 25.0 mg/kg/injection, schedule: Q01DX009 (ip), vehicle: saline with Tween-80",97 % of control
same,T/C,"dose: 25.0 mg/kg/injection, schedule: Q04DX003 (ip), vehicle: saline with Tween-80",92 % of control
same,T/C,[1],92 % of control
same,T/C,"dose: 50.0 mg/kg/injection, schedule: Q04DX003 (ip), vehicle: saline with Tween-80",97 % of control
same,T/C,"dose: 100.0 mg/kg/injection, schedule: Q04DX003 (ip), vehicle: saline with Tween-80",94 % of control and 96 % of control
CCCCc1ccc2nc(NC(=O)OC)[nH]c2c1,T/C,"dose: 50.0 mg/kg/injection, schedule: Q01DX009 (oral), vehicle: saline with Tween-80",99 % of control
same,T/C,"dose: 100.0 mg/kg/injection, schedule: Q01DX009 (oral), vehicle: saline with Tween-80",109 % of control
same,T/C,"dose: 100.0 mg/kg/injection, schedule: Q04DX003 (oral), vehicle: saline with Tween-80",105 % of control
same,T/C,"dose: 200.0 mg/kg/injection, schedule: Q01DX009 (oral), vehicle: saline with Tween-80",108 % of control
same,T/C,[2],172 % of control
same,T/C,"dose: 200.0 mg/kg/injection, schedule: Q04DX003 (oral), vehicle: saline with Tween-80",105 % of control
same,T/C,"dose: 300.0 mg/kg/injection, schedule: Q04DX003 (ip), vehicle: saline",160 % of control
same,T/C,"dose: 400.0 mg/kg/injection, schedule: Q04DX003 (ip), vehicle: saline with Tween-80",107 % of control
same,T/C,"dose: 400.0 mg/kg/injection, schedule: Q04DX003 (oral), vehicle: saline with Tween-80",114 % of control
C=CCNC(=S)Nc1ccc(O)cc1,T/C,[3],91 % of control
same,T/C,[4],97 % of control
same,T/C,[5],96 % of control
Nc1n[nH]c([N+](=O)[O-])n1,T/C,"dose: 100.0 mg/kg/injection, schedule: Q04DX003 (ip), vehicle: saline sonified",100 % of control
same,T/C,"dose: 200.0 mg/kg/injection, schedule: Q04DX003 (ip), vehicle: saline sonified",103 % of control
same,T/C,"dose: 400.0 mg/kg/injection, schedule: Q04DX003 (ip), vehicle: saline sonified",109 % of control
CCOC(=O)/C(O)=C\c1nnccc1Cl,T/C,"dose: 56.25 mg/kg/injection, schedule: Q04DX002 (ip), vehicle: saline",96 % of control
same,T/C,"dose: 112.5 mg/kg/injection, schedule: Q04DX002 (ip), vehicle: saline",104 % of control
same,T/C,"dose: 225.0 mg/kg/injection, schedule: Q04DX002 (ip), vehicle: saline",101 % of control
O=C(Nc1ccc(C2=NCCN2)cc1)c1ccc(C(=O)Nc2ccc(C3=NCCN3)cc2)nc1,T/C,"dose: 1.0 mg/kg/injection, schedule: Q01DX Z (ip), vehicle: saline",108 % of control
same,T/C,"dose: 2.0 mg/kg/injection, schedule: Q01DX Z (ip), vehicle: saline",119 % of control
same,T/C,"dose: 15.0 mg/kg/injection, schedule: Q01DX Z (ip), vehicle: carboxymethylcellulose (CMC)",228 % of control
same,T/C,"dose: 16.0 mg/kg/injection, schedule: Q01DX Z (ip), vehicle: saline",221 % of control
same,T/C,"dose: 30.0 mg/kg/injection, schedule: Q01DX Z (oral), vehicle: saline",104 % of control
same,T/C,"dose: 60.0 mg/kg/injection, schedule: Q01DX Z (ip), vehicle: carboxymethylcellulose (CMC)",117 % of control
same,T/C,"dose: 60.0 mg/kg/injection, schedule: Q01DX Z (oral), vehicle: saline",98 % of control
same,T/C,"dose: 120.0 mg/kg/injection, schedule: Q01DX Z (oral), vehicle: saline",106 % of control
same,T/C,"dose: 240.0 mg/kg/injection, schedule: Q01DX Z (oral), vehicle: saline",97 % of control
same,T/C,"dose: 480.0 mg/kg/injection, schedule: Q01DX Z (oral), vehicle: saline",98 % of control
same,T/C,"dose: 960.0 mg/kg/injection, schedule: Q01DX Z (oral), vehicle: saline",97 % of control
O=Cc1[nH]c(=O)[nH]c(=O)c1Br,T/C,[1],94 % of control
same,T/C,"dose: 100.0 mg/kg/injection, schedule: Q01DX001 (ip), vehicle: saline with Tween-80",112 % of control
same,T/C,"dose: 100.0 mg/kg/injection, schedule: Q01DX009 (ip), vehicle: saline with Tween-80",98 % of control
same,T/C,"dose: 200.0 mg/kg/injection, schedule: Q01DX001 (ip), vehicle: saline with Tween-80",116 % of control
c1ccc(Nc2ccc(Nc3ccccc3)cc2)cc1,T/C,[6],94 % of control
same,T/C,[7],113 % of control
same,T/C,[8],86 % of control
same,T/C,[9],94 % of control
same,T/C,[10],110 % of control
same,T/C,[2],93 % of control
same,T/C,[11],91 % of control
same,T/C,"dose: 400.0 mg/kg/injection, schedule: Q01DX009 (ip), vehicle: saline",110 % of control
same,T/C,"dose: 400.0 mg/kg/injection, schedule: Q04DX003 (ip), vehicle: saline",95 % of control
COc1ccc(OC)c(C(=O)CCCCC(=O)O)c1,T/C,[12],95 % of control
same,T/C,[13],93 % of control
same,T/C,[14],104 % of control
O=C(Nc1ccc2c(c1)C(Br)c1ccccc1-2)C(F)(F)F (stereo unspecified),T/C,[3],98 % of control
same,T/C,[12],97 % of control
same,T/C,[4],93 % of control
same,T/C,[13],97 % of control
same,T/C,[14],97 % of control
CCC12C=CCN3CCC4(c5cc(C(c6ccc(OC)cc6)c6cc7ccccc7n6S(=O)(=O)c6ccccc6)c(OC)cc5N(C)C4C(O)(C(=O)OC)C1OC(C)=O)C32 (stereo unspecified),T/C,[15],98 % of control
same,T/C,[16],98 % of control
same,T/C,[17],102 % of control
CC(C)(C1c2ccccc2C(=O)c2ccccc21)[N+](=O)[O-],T/C,[3],101 % of control
same,T/C,[12],98 % of control
same,T/C,[4],94 % of control
same,T/C,[13],101 % of control
same,T/C,[5],99 % of control
same,T/C,[14],101 % of control
CN(C)c1ccc(/C=N/NC(=O)c2ccccc2NC(=O)c2ccc(Cl)cc2)c(Cl)c1,T/C,[3],95 % of control
same,T/C,[4],90 % of control
same,T/C,[5],90 % of control
CCC(CS(=O)(=O)O)[N+](=O)[O-] (stereo unspecified),T/C,"dose: 100.0 mg/kg/injection, schedule: Q04DX002 (ip), vehicle: saline",96 % of control
same,T/C,"dose: 200.0 mg/kg/injection, schedule: Q04DX002 (ip), vehicle: saline",96 % of control
same,T/C,"dose: 400.0 mg/kg/injection, schedule: Q04DX002 (ip), vehicle: saline",107 % of control
CSc1nccc(=S)[nH]1,T/C,[15],88 % of control
same,T/C,[16],92 % of control
same,T/C,[17],95 % of control
CC(C)(C)OC(=O)C1(C(=O)OC(C)(C)C)C2CCCCC21 (stereo unspecified),T/C,[6],95 % of control
same,T/C,[12],101 % of control
same,T/C,[9],90 % of control
same,T/C,[13],101 % of control
same,T/C,[11],87 % of control
same,T/C,[14],96 % of control
COc1ccc(NC(=O)Oc2cc(C)c(Cl)cc2C(C)C)c(OC)c1,T/C,[3],101 % of control
same,T/C,[4],101 % of control
same,T/C,[5],92 % of control
N#Cc1ccc(OCCCOc2ccc([N+](=O)[O-])cc2)cc1,T/C,[12],106 % of control
same,T/C,[13],100 % of control
same,T/C,[14],103 % of control
N=C(N)SCc1csc(N)n1,T/C,"dose: 25.0 mg/kg/injection, schedule: Q04DX003 (ip), vehicle: saline",119 % of control
same,T/C,"dose: 50.0 mg/kg/injection, schedule: Q04DX003 (ip), vehicle: saline",111 % of control
same,T/C,[7],112 % of control
same,T/C,[8],100 % of control and 117 % of control
same,T/C,[10],96 % of control
